Consider six compounds from US20220257516A1, “THERAPEUTIC CONSTRUCTS FOR CO-DELIVERY OF MITOTIC KINASE INHIBITOR AND IMMUNE CHECKPOINT INHIBITOR” (Oregon Health & Science University, priority 2019, published 2022).

Data set [1] has as its system PD-L1 surface expression of LLC-JSP cells. The data set is described as follows: PD-L1 surface expression by flow cytometry, LLC-JSP. It counts as cell-based, mouse. The conditions noted are these: for surface PD-L1 level of surviving cells: 500 ng/ml. The method, then:
FIGS. 4A-4C Treatment effects of mitotic kinase inhibitors on (A) 3-day viability of LLC-JSP cells, (B) PD-L1 expression levels of surviving cells post treatment with 500 ng/ml of volasertib, alisertib, or AZD7762 as determined by flow cytometry and (C) their quantification.
FIGS. 6A-6D Nanoparticle delivery of PLK1 inhibitor volasertib (iPLK1-NP) to mouse NSCLC cells. (FIG. 6A) Schematic of synthesis of iPLK1-NP. (FIG. 6B) Hydrodynamic size of NP (with no inhibitor) and iPLK1-NP measured with Zetasizer. (FIG. 6C) Viability of LLC-JSP cells treated with volasertib (in 1% DMSO/PBS), iPLK1-NP (in PBS), or 1% DMSO/PBS for 4 days. Data presented as mean±SD from 4 independent samples; ****P<0.0001. (FIG. 6D) PD-L1 surface expression of LLC-JSP cells treated with PBS or iPLK1-NP (42 μg/ml NP, 210 ng/ml volasertib) for 3 days.
FIGS. 7A-7E. Nanoparticle for co-delivery of PLK1 inhibitor (iPLK1) and PD-L1 antibody (p-iPLK1-NP). (FIG. 7A) Schematic and (FIG. 7B) hydrodynamic size of p-iPLK1-NP containing 4 wt. % of PD-L1 antibody and 0.5 wt. % of PLK1 inhibitor. (FIG. 7C) 5-day cell viability of LLC-JSP cells treated with iPLK1-NP or p-iPLK1-NP. Data presented as mean±SD from 4 independent samples; ns—not significant. PD-L1 surface expression assessed by flow cytometry after LLC-JSP cells were incubated with various treatments as specified for (FIG. 7D) 2 hrs and (FIG. 7E) 2 days. Doses: free PD-L1 antibody (50 μg/ml), iPLK1-NP (NP containing 50 μg/ml volasertib), and p-iPLK1-NP (NP containing 50 μg/ml volasertib and 2 μg/ml PD-L1 antibody). Left of FIGS. 7D and 7E: representative histograms, right: median intensity (RFU). Data presented as mean±SD from independent duplicates (10,000 events per sample); *P<0.05, **P<0.01, ***P<0.001, ****P<0.0001. Unless specified otherwise, the percent loading is by weight of nanoparticle throughout the application.
(§1) FIGS. 12A and 12B. Inhibition of PLK1 reduces phosphorylation of STAT3. Western blot showing protein expression of PLK1, Pl3Ka, phosphorylated STAT3 (Tyr705), phosphorylated AKT (Ser473), and p-Actin 3 days post treatment (50 nM siRNA) in A549 and H460 NSCLC cell lines. […] The cells were treated with NP containing 30 nM siRNA against PD-L1 (siPDL1) or 30 nM scrambled siRNA (siSCR) at 2 wt. % siRNA. At 72 hr post treatment, cells were harvested and assessed for PD-L1 protein expression by flow cytometry. RFU=Relative fluorescence units.
Flow cytometry: Cells (100K cells/well) were plated in 6 well plates overnight and treated with indicated treatments the next day. Following treatments, cells were collected and aliquoted to […] per sample before washing in FACs buffer and staining. […] Cells were then washed with FACs buffer and analyzed with Guava (50,000 events per sample).

For the next data set, the system named is LLC-JSP cells. The data set is described as follows: Cell viability after treatments (Cell Titer Glo), LLC-JSP. The conditions noted are these: for 3-day viability of LLC-JSP cells: free mitotic kinase inhibitors. Format: cell-based, mouse.
The subject of the next data set is A549. The data set is described as follows: Cell cycle arrest in G2/M phase. Format: cell-based, human. The following applies: 72 hr post treatment, 50 nM siRNA, BI 2536 at 10 nM. The method, then: (§2) FIGS. 2A-2D. Effects of siRNA against mitotic regulator PLK1 (siPLK1) on non-small-cell lung carcinoma (NSCLC) cell lines (A549 and H460). (FIG. 2A) 48-hr PLK1 mRNA knockdown (HPRT used as house-keeping gene) and (FIG. 2B) 72-hr PLK1 protein reduction at 50 nM siRNA dose. (FIG. 2C) 4-day cell viability at 30 nM siRNA dose. (FIG. 2D) Cell cycle arrest increase in G2/M phase in A549 72 hr post treatment. Antibody (cetuximab) conjugated NP was used to deliver the siPLK1 (C-siPLK1-NP) or scrambled siRNA control (C-siSCR-NP) at 50 nM siRNA BI 2536 (a PLK1 inhibitor) was used as a drug benchmark at 10 nM. Data presented as mean±SD from independent duplicates (10,000 events per sample); ****P<0.0001 vs. untreat control. Unless specified otherwise, “NP” denotes mesoporous silica nanoparticles coated with cross-linked PEI and PEG, as described in Ngamcherdtrakul et al., Advanced Functional Materials, 25(18):2646-2659, 2015 and U.S. Patent Application Publication No. 2017/0173169.

In data set [2] the test system is PD-L1 surface expression of A549. The data set is described as follows: PD-L1 surface expression by flow cytometry, A549. It counts as cell-based, human. The following applies: 3 days (72 hr) post siRNA treatment. The source says:
(§3) FIGS. 3A-3C. […] (FIG. 3A) PLK1 and PD-L1 mRNA expression in A549 (human NSCLC) at 48 hr post treatment with PLK1 siRNA (siPLK1) or scrambled siRNA (siSCR) normalized to HPRT housekeeping gene. Data presented as mean±SD from triplicates; ****P<0.0001. (FIG. 3B) PD-L1 surface expression of A549 ([…]) and LLC-JSP (a mouse NSCLC, FIG. 3C) at 72 hr post treatments assessed by flow cytometry (10,000 events per sample). Mouse siPLK1 seq. […] (SEQ ID NO: 1); Human siPLK1 seq. […] (SEQ ID NO: 2).
Flow cytometry: Cells (100K cells/well) were plated in 6 well plates overnight and treated with indicated treatments the next day. Following treatments, cells were collected and aliquoted to […] per sample before washing in FACs buffer and staining. Primary and secondary antibodies were stained for 30 mins and 1 hour, respectively, under rocking on ice. After staining, cells were washed in FACs buffer before flow analysis with Guava easyCyte (Millipore Sigma) flow cytometer (10,000 events per sample). For tumors, tumors were harvested, minced, and incubated with 1 mg/ml DNAse for 30 minutes before smashing through 70 μm filter to obtain single cell suspension. RBC lysis buffer was incubated with cells for 5 minutes, and washed with PBS. […] Cells were then washed with FACs buffer and analyzed with Guava (50,000 events per sample).

In the next data set the test system is PLK1 mRNA. The data set is described as follows: PLK1 knock down by siRNA (RT-qPCR / protein). It counts as cell-based, human. The following applies: A549; 48 hr post treatment; normalized to HPRT. The protocol:
as §2
FIGS. 3A-3C. […] (FIG. 3B) PD-L1 surface expression of A549 (FIG. 2B) and LLC-JSP (a mouse NSCLC, FIG. 3C) at 72 hr post treatments assessed by flow cytometry (10,000 events per sample). […]
RT-qPCR to assess PLK1 gene knock down: RNA was isolated with GeneJet RNA purification kit (Thermo Fisher Scientific) following manufacturer's instructions. […] Data was analyzed using 2^−ΔΔC(t) method.

Data set [3] relates to phosphorylated STAT3 (Tyr705). The data set is described as follows: Western blot of phosphorylated STAT3 after PLK1 inhibition. Format: cell-based, human. The following applies: A549 and H460; 3 days post treatment; 50 nM siRNA. The method, then:
as §1
Western Blot. Cells were seeded in 6 well plates overnight and treated with indicated treatments. Cell culture medium was changed one day aftertreatment. Three days post treatment, cells were lysed in RIPA buffer (50-100 μl per well). Lysate was sonicated and centrifuged (15,000 RPM for 15 minutes) and supernatant was collected. Amount of total protein was quantified using BCA. 30 μg of proteins (per sample) were mixed with 4× Novex NuPAGE LDS sample buffer and beta-mercaptoethanol (10% final concentration). Samples were denatured for 5 min at 95° C. and loaded onto gel (NuPAGE) for electrophoresis. Proteins were then transferred onto PVDF-FL membrane and blocked with LICOR blocking buffer. Membranes were incubated with primary antibodies overnight (PLK1, phospho-STAT3 (Tyr705), β-ACTIN) at 4° C. […]

For data set [4], the system named is PD-L1 mRNA expression in A549. The data set is described as follows: PD-L1 mRNA expression after PLK1 knock-down (RT-qPCR). The following applies: 48 hr, compared with control treated cells. It counts as cell-based, human.
Excerpt: as §3
RT-qPCR to assess PLK1 gene knock down: RNA was isolated with GeneJet RNA purification kit (Thermo Fisher Scientific) following manufacturer's instructions. One-Step qRT-PCR was performed using EXPRESS One-Step Superscript™ qRT-PCR Kit (Invitrogen). Cycling conditions: 50° C. for 2 min, 95° C. for 10 min, 40 cycles of 95° C. for 15 s, and 60° C. for 1 min. TAQMAN gene expression primers Human HPRT mRNA (Hs99999909_m1), Human PLK1 mRNA (Hs00983225_g1), and Human PD-L1 (Hs00204257_ml) were used. Data was analyzed using 2^−ΔΔC(t) method.

As to `NC(=O)Nc1cc(-c2cccc(F)c2)sc1C(=O)N[C@H]1CCCNC1` [AZD7762], in data set [1], the “surface PD-L1 level of surviving cells” value was “upregulated surface PD-L1 level”. For the same compound, the “3-day viability of LLC-JSP cells” value in the data set with LLC-JSP cells is “significant cell death”.

Turning to `CC[C@@H]1C(=O)N(C)c2cnc(Nc3ccc(C(=O)NC4CCN(C)CC4)cc3OC)nc2N1C1CCCC1` [BI2536], in the data set on A549, the “cell cycle arrest in G2/M phase” value is on record as “G2/M growth arrest”.

As to `COc1cc(Nc2ncc3c(n2)-c2ccc(Cl)cc2C(c2c(F)cccc2OC)=NC3)ccc1C(=O)O` [alisertib], in data set [1], the “surface PD-L1 level of surviving cells” value is on record as “upregulated surface PD-L1 level”. Moreover, the “3-day viability of LLC-JSP cells” value in the data set with LLC-JSP cells is “significant cell death”.

Consider `CC[C@@H]1C(=O)N(C)c2cnc(Nc3ccc(C(=O)N[C@H]4CC[C@H](N5CCN(CC6CC6)CC5)CC4)cc3OC)nc2N1C(C)C` [volasertib], for which, in data set [1], the “surface PD-L1 level of surviving cells” value is recorded as “upregulated surface PD-L1 level”. The “cell viability compared with vehicle treated cells” value in the data set on LLC-JSP cells (LLC-JSP, 4 days, dose-dependent) is given as “significantly reduced cell viability”. In addition, the “3-day viability of LLC-JSP cells” value in the data set with LLC-JSP cells was “significant cell death”.

For the compound “Mouse siPLK1: Mouse siPLK1 seq. GUGGGCGUGGUACCAUCUGUU (SEQ ID NO: 1) (listed as RNA, chemistry not given here)”, in data set [1] (72 hr post siRNA treatment), the PD-L1 surface expression result is reported as “induces PD-L1 expression”.

On to “siPLK1: siRNA against PLK1, antisense 5′-UAUUCAUUCUUCUUGAUCCGG-3′; SEQ ID NO: 2 (sense strand lacks entry, further chemistry not given here)”, for which the PD-L1 surface expression result in data set [2] is “increase in PD-L1 surface expression”. The “knockdown of PLK1 mRNA” value in the data set with PLK1 mRNA turned out to be 85%. Besides, the “phosphorylation of STAT3” value in data set [3] is “reduced phosphorylation of STAT3”. In data set [4], the “increase in PD-L1 mRNA expression” value was 2.5 fold.
